Assay results taken from US8586034B2, “Cytomegalovirus disintegrin-like peptides” (priority 2004, dated 2013).

Columns and labels:
HCMV = assay: Viral payload delivery, pp65 localization; assay type: cell-based, Human cytomegalovirus; conditions: human fibroblasts treated, then infected with HCMV
Method: (§1) For CMV entry assays, subconfluent cells were grown on glass coverslips in 12-well plates. Integrin neutralizing antibodies or peptides were incubated in serum-free DMEM with cell monolayer for 30 minutes at 37° C. Cells were washed with phosphate-buffered saline (PBS) and incubated with HCMV strain AD169, MCMV Smith strain, or MCMV-GFP for 60 minutes at 37° C. Any non-penetrated virus was inactivated with low-pH citrate buffer (40 mM citric acid, 10 mM KCl, 135 mM NaCl, pH 3.0). The cells were incubated 20-24 hours at 37° C. in DMEM supplemented with 2% bovine calf serum (BCS). […] Experiments were performed in triplicate with a minimum of 1000 cells scored per coverslip. […] Cells were incubated 6 hours at 37° C. in DMEM supplemented with 10% BCS prior to lysis (100 mM sodium phosphate, 10 mM KCl, 1 mM magnesium sulfate, 0.1% NP-40, pH 7.4). β-galactosidase activity was measured by addition of o-nitrophenyl-β-D-galactopyranoside (ONPG) and the absorbance was monitored at 420 nm.
Next, an assay was performed that directly measured delivery of an internal virion component. […] FIG. 6B is a histogram showing the results of a series of assays wherein human fibroblasts were treated with various integrin-blocking agents, infected with HCMV, and then assayed for viral payload as measured by pp65 localization. […]

HCMV strain AD169 = assay: Virus entry assay, HCMV infectivity by IE gene expression; assay type: cell-based, Human cytomegalovirus; conditions: NHDFs treated prior to HCMV challenge
Method: as §1
FIG. 2A presents the results of a series of assays wherein NHDFs were treated with HCMV gB disintegrin-like peptide, gB disintegrin-like Null peptide, RGD, or RGE peptide prior to HCMV challenge (as indicated in the FIG. 2A). Infectivity was determined by IE gene expression. […]

MCMV Smith strain = assay: Virus entry assay, MCMV infectivity by e1-positive cells; assay type: cell-based, Murine cytomegalovirus; conditions: mouse fibroblasts (murine 3T3) treated with peptide
Method: as §1, with “nm. […]” for “nm.”
FIG. 4B is a histogram showing the results of an assay wherein GD25, GD25β1 and 3T3 cells were treated with β1, β3, and β1+β3 antibodies, followed by MCMV infection. As described above, infectivity was determined by scoring e1-(early protein) positive cells. […]

HSV-1(KOS)gL86 = assay: HSV entry assay (β-galactosidase activity); assay type: cell-based, herpes simplex virus-1; conditions: NHDF cells treated with peptide
Method: For CMV entry assays, subconfluent cells were grown on glass coverslips in 12-well plates. Integrin neutralizing antibodies or peptides were incubated in serum-free DMEM with cell monolayer for 30 minutes at 37° C. Cells were washed with phosphate-buffered saline (PBS) and incubated with HCMV strain AD169, MCMV Smith strain, or MCMV-GFP for 60 minutes at 37° C. Any non-penetrated virus was inactivated with low-pH citrate buffer (40 mM citric acid, 10 mM KCl, 135 mM NaCl, pH 3.0). The cells were incubated 20-24 hours at 37° C. in DMEM supplemented with 2% bovine calf serum (BCS). Immunofluorescence analysis was performed as previously described^28 with either mouse anti-IE monoclonal antibody 1203, mouse anti-pp65 monoclonal antibody or rabbit anti-MCMV e1 polyclonal, followed by detection with a fluorescein-conjugated goat anti-mouse secondary or a fluorescein-conjugated goat anti-rabbit secondary antibody. Nuclei were stained with 300 nM 4′,6-diamidino-2-phenylindole (DAPI). Experiments were performed in triplicate with a minimum of 1000 cells scored per coverslip. […] Cells were incubated 6 hours at 37° C. in DMEM supplemented with 10% BCS prior to lysis (100 mM sodium phosphate, 10 mM KCl, 1 mM magnesium sulfate, 0.1% NP-40, pH 7.4). β-galactosidase activity was measured by addition of o-nitrophenyl-β-D-galactopyranoside (ONPG) and the absorbance was monitored at 420 nm. […]

HCMV AD 169 = assay: Virus binding assay (HCMV attachment, gB ELISA); assay type: cell-based, Human cytomegalovirus; conditions: NHDF, 4° C.; 1 mM gB disintegrin-like peptide, 1:50 DE9, α2 and α6 integrin antibodies 20 μg/mL
Method: NHDF cells were grown in 96-well plates and treated with integrin-neutralizing antibodies, peptides, or heparin for 60 minutes at 4° C. Cells were then challenged with HCMV AD 169 at a multiplicity of infection (MOI) of 5 pfu/cell for 60 minutes at 4° C. Unbound virus was removed and cells were washed and fixed with 3% paraformaldehyde. Bound HCMV was detected with monoclonal antibody 27-78, horseradish peroxidase (HRP)-conjugated goat anti-mouse secondary antibody, and ImmunoPure TMB Substrate Kit (Pierce, Rockford, Ill.). Absorbance was measured at 450 nm. All experiments were performed in triplicate.
During virus infection, integrins are utilized as primary viral attachment receptors or as post-attachment (fusion-activating) or internalization receptors.^11 To determine at which step in the HCMV entry pathway integrins are functioning, cell binding (i.e., attachment) experiments were performed, as well as assays to measure viral payload delivery into the cytoplasm (internalization). For the binding assays, virus was bound at 4° C. to allow for stable virus binding, but to restrict fusion and internalization. The results are depicted in FIG. 6A. […] Attachment was measured by gB ELISA.

diI-labeled HCMV = assay type: cell-based, Human cytomegalovirus; conditions: gBDLD or BSA 320 μg/mL, soluble heparin 50 μg/mL; 24 hours post-infection

With “AVCSMAGGTAAIRAERNIIC (listed as Human cytomegalovirus) [gB disintegrin-like null peptide, null peptide with alanine substitutions in the disintegrin-like consensus residues, reference compound]” the “uptake of pp65 tegument protein” value (HCMV) was “not” and the “HCMV infectivity (IE gene expression)” value (HCMV strain AD169) was “able to infect”.
In the case of “RVCSMAQGTDLIRFERNIIC (listed as Human cytomegalovirus) [gB disintegrin-like peptide, synthetic 20 amino acid peptide encompassing the HCMV gB disintegrin-like domain]”, the MCMV infectivity (MCMV Smith strain) was “dramatic reduction in MCMV infectivity”, the “uptake of pp65 tegument protein” value (HCMV) was “little uptake” and the “ability of HSV-1 to infect cells” value (HSV-1(KOS)gL86) was “no effect”. For the same substance, the “HCMV infectivity (IE gene expression)” value (HCMV strain AD169) was “dose-dependent inhibitory response” and the “HCMV attachment (gB ELISA)” value (HCMV AD 169) was “no effect”.
For “heparin [soluble heparin, reference compound]”, the “HCMV fusion (dye transfer) and gene expression” value (diI-labeled HCMV) was “blocks HCMV attachment” and the “HCMV attachment (gB ELISA)” value (HCMV AD 169) was “prevented virus attachment”.
